Source: patent publication US9686984B2, “Macrocyclic picolinamides as fungicides” (DOW AGROSCIENCES LLC, priority 2014, dated 2017)
Read-outs that look alike come from different tables or passages of the source.

Legend:
Assay type in all cases: in vivo
Puccinia triticina = assay: Wheat Brown Rust (PUCCRT) disease control on wheat seedlings; conditions: for pest or weed control at 121.5 g/ha: Low Volume (121.5 g/H); for pest or weed control at 100 µg/mL: High Volume (100 ppm)
Method in brief: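 Yuma wheat seedlings at the first-leaf stage sprayed to run-off (acetone solution in nine volumes of water, 110 ppm Triton X-100) or track-sprayed as EC with 0.1% Trycol 5941. Inoculation with P. triticina before or after treatment, then overnight dark dew at 22° C., 100% RH, then a 24° C. greenhouse. Percent control from severity vs untreated.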

Erysiphe cichoracearum = assay: Powdery Mildew of Cucumber (ERYSCI) disease control; conditions: 100 ppm, 1 Day Protectant
Method: Technical grades of materials were dissolved in acetone, which were then mixed with nine volumes of water containing 110 ppm Triton X-100. The fungicide solutions were applied onto wheat seedlings using an automated booth sprayer to run-off. All sprayed plants were allowed to air dry prior to further handling. All fungicides were evaluated using the aforementioned method for their activity vs. all target diseases, unless stated otherwise. Wheat leaf blotch and brown rust activity were also evaluated using track spray applications, in which case the fungicides were formulated as EC formulations, containing 0.1% Trycol 5941 in the spray solutions. Wheat plants (variety Yuma) were grown from seed in a greenhouse in 50% mineral soil/50% soil-less Metro mix until the first leaf was fully emerged, with 7-10 seedlings per pot. These plants were inoculated with an aqueous spore suspension of Septoria tritici either prior to or after fungicide treatments. After inoculation the plants were kept in 100% relative humidity (one day in a dark dew chamber followed by two to three days in a lighted dew chamber at 20° C.) to permit spores to germinate and infect the leaf. The plants were then transferred to a greenhouse set at 20° C. for disease to develop. When disease symptoms were fully expressed on the 1st leaves of untreated plants, infection levels were assessed on a scale of 0 to 100 percent disease severity. Percent disease control was calculated using the ratio of disease severity on treated plants relative to untreated plants. Example F: Evaluation of Fungicidal Activity: Powdery Mildew of Cucumber (Erysiphe cichoracearum; Bayer Code […]) Cucumber seedlings (variety Bush Pickle) were grown in soil-less Metro mix, with one plant per pot, and used in the test when 12 to 14 days old. Plants were inoculated with a spore suspension 24 hr following fungicide treatments. After inoculation the plants remained in the greenhouse set at 20° C. until disease was fully expressed. […]

Glomerella lagenarium = assay: Cucumber Anthracnose (COLLLA) disease control; conditions: 100 ppm, 1 Day Protectant
Method: Technical grades of materials were dissolved in acetone, which were then mixed with nine volumes of water containing 110 ppm Triton X-100. The fungicide solutions were applied onto wheat seedlings using an automated booth sprayer to run-off. All sprayed plants were allowed to air dry prior to further handling. All fungicides were evaluated using the aforementioned method for their activity vs. all target diseases, unless stated otherwise. Wheat leaf blotch and brown rust activity were also evaluated using track spray applications, in which case the fungicides were formulated as EC formulations, containing 0.1% Trycol 5941 in the spray solutions. Wheat plants (variety Yuma) were grown from seed in a greenhouse in 50% mineral soil/50% soil-less Metro mix until the first leaf was fully emerged, with 7-10 seedlings per pot. These plants were inoculated with an aqueous spore suspension of Septoria tritici either prior to or after fungicide treatments. After inoculation the plants were kept in 100% relative humidity (one day in a dark dew chamber followed by two to three days in a lighted dew chamber at 20° C.) to permit spores to germinate and infect the leaf. The plants were then transferred to a greenhouse set at 20° C. for disease to develop. When disease symptoms were fully expressed on the 1st leaves of untreated plants, infection levels were assessed on a scale of 0 to 100 percent disease severity. Percent disease control was calculated using the ratio of disease severity on treated plants relative to untreated plants. Example N: Evaluation of Fungicidal Activity: Cucumber Anthracnose (Glomerella lagenarium; Anamorph: Colletotrichum lagenarium; Bayer Code COLLLA) Cucumber seedlings (variety Bush Pickle) were propagated in soil-less Metro mix, with each pot having one plant, and used in the test when 12 to 14 days old. Test plants were inoculated with an aqueous spore suspension of Colletotrichum lagenarium 24 hr after fungicide treatments. […]

[1] = 24 h, 1 Day Protectant, read-out: PUCCRT disease control, 1 DP
[2] = 72 h, 3 Day Curative, read-out: PUCCRT disease control, 3 DC

Structure (SMILES)	pest or weed control at 121.5 g/ha (Puccinia triticina; [1]) [%]	pest or weed control at 121.5 g/ha (Puccinia triticina; [2]) [%]	ERYSCI disease control, 1DP (Erysiphe cichoracearum)	COLLLA disease control, 1DP (Glomerella lagenarium)	pest or weed control at 100 µg/mL (Puccinia triticina; [1]) [%]	pest or weed control at 100 µg/mL (Puccinia triticina; [2]) [%]
CCCC[C@H]1OCC[C@H](NC(=O)c2nccc(OC)c2OC(C)=O)C(=O)O[C@@H](C)[C@@H]1Cc1ccccc1 [Compound 2]	> 70	> 70	B (≦70)	A (>70)	–	–
COc1ccnc(C(=O)N[C@H]2CCO[C@H](Cc3ccccc3)[C@@H](Cc3ccccc3)[C@H](C)OC2=O)c1OC(C)=O [Compound 3]	> 70	> 70	B (≦70)	A (>70)	–	–
CCC[C@H]1OCC[C@H](NC(=O)c2nccc(OC)c2OCOC(C)=O)C(=O)O[C@@H](C)[C@@H]1Cc1ccccc1 [Compound 17]	> 70	> 70	B (≦70)	A (>70)	> 70	> 70
